The source of these data is ChEMBL document CHEMBL1129113, “Adipoyl-6-aminopenicillanic acid is a substrate for deacetoxycephalosporin C synthase (DAOCS)” (Bioorg Med Chem Lett, 1996).

Assay [1] deals with Escherichia coli. Put plainly: Enzyme catalytic constant (Kcat) against Deacetoxycephalosporin C synthase.
Assay [2] has as its system Escherichia coli. The assay can be described thus: Enzyme kinetic constant (Km) against Deacetoxycephalosporin C synthase.

By Km is commonly meant the substrate concentration at which the rate is half of its maximum. Consider `CC1(C)S[C@@H]2[C@H](NC(=O)CCC[C@@H](N)C(=O)O)C(=O)N2[C@H]1C(=O)O`, for which the k cat in the assay on Escherichia coli [1] was 0.442 s⁻¹. Moreover, in the assay with Escherichia coli [2], the Km turned out to be 10.3 mM.

As for `CC1(C)S[C@@H]2[C@H](NC(=O)CCCCC(=O)O)C(=O)N2[C@H]1C(=O)O`, the k cat in the assay with Escherichia coli [1] was 0.071 s⁻¹. Besides, the Km in the assay on Escherichia coli [2] turned out to be 1.22 mM.
